Measurements as given in patent publication US9957261B2 (Hoffmann-La Roche Inc., priority 2014, dated 2018).

How the values were obtained:
[1] = biological target: mouse TAAR1 (Mus musculus (Mouse), UniProt Q923Y8); test: Radioligand binding assay on mouse TAAR1; conditions: mouse TAAR1, membranes of stably transfected HEK-293 cells; first value of mouse/rat pair
Protocol: (§1) Construction of TAAR Expression Plasmids and Stably Transfected Cell Lines
(§2) For the construction of expression plasmids the coding sequences of human, rat and mouse TAAR 1 were amplified from genomic DNA essentially as described by Lindemann et al.. The Expand High Fidelity PCR System (Roche Diagnostics) was used with 1.5 mM Mg^2+ and purified PCR products were cloned into pCR2.1-TOPO cloning vector (Invitrogen) following the instructions of the manufacturer. PCR products were subcloned into the pIRESneo2 vector (BD Clontech, Palo Alto, Calif.), and expression vectors were sequence verified before introduction in cell lines.
(§3) HEK293 cells (ATCC # CRL-1573) were cultured essentially as described by Lindemann et al. (2005). For the generation of stably transfected cell lines HEK293 cells were transfected with the pIRESneo2 expression plasmids containing the TAAR coding sequences (described above) with Lipofectamine 2000 (Invitrogen) according to the instructions of the manufacturer, and 24 hrs post transfection the culture medium was supplemented with 1 mg/ml G418 (Sigma, Buchs, Switzerland). After a culture period of about 10 d clones were isolated, expanded and tested for responsiveness to trace amines (all compounds purchased from Sigma) with the cAMP Biotrak Enzyme immunoassay (EIA) System (Amersham) following the non-acetylation EIA procedure provided by the manufacturer.
Radioligand Binding Assay on Mouse TAAR1
(§4) Membrane Preparation and Radioligand Binding.
(§5) HEK-293 cells stably expressing mouse TAAR1 were maintained at 37° C. and 5% CO2 in DMEM high glucose medium, containing fetal calf serum (10%, heat inactivated for 30 min at 56° C.), penicillin/streptomycin (1%), and 375 μg/ml geneticin (Gibco). Cells were released from culture flasks using trypsin/EDTA, harvested, washed twice with ice-cold PBS (without Ca^2+ and Mg^2+), pelleted at 1′000 rpm for 5 min at 4° C., frozen and stored at −80° C. Frozen pellets were suspended in 20 ml HEPES-NaOH (20 mM, pH 7.4) containing 10 mM EDTA and homogenized with a Polytron (PT 6000, Kinematica) at 14,000 rpm for 20 s. The homogenate was centrifuged at 48,000×g for 30 min at 4° C. Subsequently, the supernatant was removed and discarded, and the pellet resuspended in 20 ml HEPES-NaOH (20 mM, pH 7.4) containing 0.1 mM EDTA using the Polytron (20 s at 14,000 rpm). This procedure was repeated and the final pellet resuspended in HEPES-NaOH containing 0.1 mM EDTA and homogenized using the Polytron. Typically, aliquots of 2 ml membrane portions were stored at −80° C. With each new membrane batch the dissociation constant (Kd) was determined via a saturation curve. […] Nonspecific binding was defined as the amount of ^3[H]—(S)-4-[(ethyl-phenyl-amino)-methyl]-4,5-dihydro-oxazol-2-ylamine bound in the presence of 10 μM unlabeled ligand. All compounds were tested at a broad range of concentrations (10 pM to 10 μM) in duplicates. […] The 96 deep well plates were incubated for 1 hr at 4° C. Incubations were terminated by rapid filtration through Unifilter-96 plates (Packard Instrument Company) and glass filters GF/C (Perkin Elmer) presoaked for 1 hr in polyethylenimine (0.3%) and washed 3 times with 1 ml of cold binding buffer. After addition of 45 μl of Microscint 40 (PerkinElmer) the Unifilter-96 plate was sealed and after 1 hr the radioactivity counted using a TopCount Microplate Scintillation Counter (Packard Instrument Company).

[2] = biological target: rat TAAR1 (Rattus norvegicus (Rat), UniProt Q923Y9); test: Radioligand binding assay on rat TAAR1; conditions: rat TAAR1, membranes of stably transfected HEK-293 cells; second value of mouse/rat pair
Protocol: as §1, §2, §3
Radioligand Binding Assay on Rat TAAR1
as §4
as §5, with “rat” for “mouse”, “[H]—(S)-4-[(ethyl-phenyl-amino)-methyl]-4,5-dihydro-oxazol-2-ylamine” for “^3[H]—(S)-4-[(ethyl-phenyl-amino)-methyl]-4,5-dihydro-oxazol-2-ylamine”

Chain of rat TAAR1 (Q923Y9 whole entry): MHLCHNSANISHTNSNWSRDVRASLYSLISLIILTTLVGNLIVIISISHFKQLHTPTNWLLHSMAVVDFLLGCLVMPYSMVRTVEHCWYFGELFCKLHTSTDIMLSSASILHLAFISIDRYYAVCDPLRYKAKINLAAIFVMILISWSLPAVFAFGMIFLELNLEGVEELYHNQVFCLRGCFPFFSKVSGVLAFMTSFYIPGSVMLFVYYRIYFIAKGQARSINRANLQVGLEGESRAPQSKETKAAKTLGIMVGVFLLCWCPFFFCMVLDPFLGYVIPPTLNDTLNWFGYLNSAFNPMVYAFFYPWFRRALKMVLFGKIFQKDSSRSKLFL
Chain of mouse TAAR1 (Q923Y8 whole entry): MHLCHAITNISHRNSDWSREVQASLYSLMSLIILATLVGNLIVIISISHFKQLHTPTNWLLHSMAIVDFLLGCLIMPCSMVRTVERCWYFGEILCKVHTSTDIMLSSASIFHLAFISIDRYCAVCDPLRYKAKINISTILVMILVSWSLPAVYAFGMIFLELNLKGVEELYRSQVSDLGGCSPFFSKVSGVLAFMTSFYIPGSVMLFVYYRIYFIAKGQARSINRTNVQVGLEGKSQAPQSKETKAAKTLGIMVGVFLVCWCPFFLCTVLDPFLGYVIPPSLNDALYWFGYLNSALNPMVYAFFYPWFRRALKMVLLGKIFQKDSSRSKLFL

Row | SMILES | Ki [1] [µM] | Ki [2] [µM]
1 | N[C@H]1CCc2cc(NC(=O)c3cnn(-c4ccc(Cl)c(Cl)c4)c3)ccc2C1 [Example 28, (S)—N-(6-Amino-5,6,7,8-tetrahydronaphthalen-2-yl)-1-(3,4-dichlorophenyl)-1H-pyrazole-4-carboxamide] | 0.0007 | 0.0003
2 | NC1CCc2cc(C(=O)Nc3ccc(Cl)cc3)ccc2C1 (centres unmarked) [Example 57, 6-Amino-N-(4-chlorophenyl)-5,6,7,8-tetrahydronaphthalene-2-carboxamide] | 0.0116 | 0.0142
3 | NC1CCc2cc(C(=O)Nc3cccc(OC(F)(F)F)c3)ccc2C1 (centres unmarked) [Example 55, 6-Amino-N-(3-(trifluoromethoxy)phenyl)-5,6,7,8-tetrahydronaphthalene-2-carboxamide] | 0.003 | 0.0017
4 | Cc1cc(C(=O)Nc2ccc3c(c2)OC[C@H](N)C3)nc(C(F)(F)F)n1 [Example 12, (R)—N-(3-Aminochroman-7-yl)-6-methyl-2-(trifluoromethyl)pyrimidine-4-carboxamide] | 0.0581 | 0.0436
5 | Cc1cc(C(=O)Nc2ccc3c(c2)OC[C@H](N)C3)cc(Cl)n1 [Example 89, (R)—N-(3-Aminochroman-7-yl)-2-chloro-6-methylisonicotinamide] | 0.0088 | 0.0243
6 | N[C@H]1COc2cc(NC(=O)c3cc(Cl)nc(Cl)c3)ccc2C1 [Example 91, (R)—N-(3-Aminochroman-7-yl)-2,6-dichloroisonicotinamide] | 0.0035 | 0.0077
7 | N#Cc1ccc(C(=O)Nc2ccc3c(c2)OC[C@H](N)C3)cc1F [Example 86, (R)—N-(3-Aminochroman-7-yl)-4-cyano-3-fluorobenzamide] | 0.0026 | 0.0044
8 | N[C@H]1CCc2cc(Nc3ccc(C4CC4)cc3)ccc2C1 [Example 73, (S)—N6-(4-Cyclopropylphenyl)-1,2,3,4-tetrahydronaphthalene-2,6-diamine] | 0.01 | 0.0081
9 | N[C@H]1CCc2cc(NC(=O)c3ccc(F)c(F)c3)ccc2C1 [Example 42, (S)—N-(6-Amino-5,6,7,8-tetrahydronaphthalen-2-yl)-3,4-difluorobenzamide] | 0.0035 | 0.0019
10 | N[C@H]1CCc2cc(NC(=O)Nc3ccc(Cl)cc3)ccc2C1 [Example 74, (S)-1-(6-Amino-5,6,7,8-tetrahydronaphthalen-2-yl)-3-(4-chlorophenyl)urea] | 0.001 | 0.0005
11 | N[C@H]1CCc2cc(Nc3cccc(OC(F)(F)F)c3)ccc2C1 [Example 61, (S)—N6-(3-(Trifluoromethoxy)phenyl)-1,2,3,4-tetrahydronaphthalene-2,6-diamine] | 0.0071 | 0.0049
12 | N[C@H]1CCc2cc(NC(=O)c3ccc(OCC(F)(F)F)nc3)ccc2C1 [Example 22, (S)—N-(6-Amino-5,6,7,8-tetrahydronaphthalen-2-yl)-6-(2,2,2-trifluoroethoxy)nicotinamide] | 0.0033 | 0.0016
13 | CCOc1cc(C(=O)Nc2ccc3c(c2)CC[C@H](N)C3)ccn1 [Example 19, (S)—N-(6-Amino-5,6,7,8-tetrahydronaphthalen-2-yl)-2-ethoxyisonicotinamide] | 0.0187 | 0.0216
14 | NC1CCc2cc(C(=O)Nc3ccc(C(F)(F)F)cc3)ccc2C1 (centres unmarked) [Example 34, 6-Amino-N-(4-(trifluoromethyl)phenyl)-5,6,7,8-tetrahydronaphthalene-2-carboxamide] | 0.0054 | 0.0039
15 | N[C@@H]1CCc2cc(NC(=O)c3ccc(Cl)cc3)ccc2C1 [Example 14, (R)—N-(6-Amino-5,6,7,8-tetrahydronaphthalen-2-yl)-4-chlorobenzamide] | 0.0092 | 0.0069
16 | CCCc1cc(C(=O)Nc2ccc3c(c2)OCC(N)C3)nn1CC(F)F (centres unmarked) [Example 8, N-(3-Aminochroman-7-yl)-1-(2,2-difluoroethyl)-5-propyl-1H-pyrazole-3-carboxamide] | 0.0198 | 0.01
